Like-named read-outs stand apart in the source and are kept apart here.
Columns and labels:
[1] = test system: canine parvovirus <CPV(Y-1)>; experiment: Antiviral testing (canine parvovirus), TCID50 by swine hemagglutination test, CRFK cells; type: cell-based
[2] = target: human hepatitis B surface antigen (HBsAg) (Hepatitis B virus genotype C subtype adr, UniProt P12934); experiment: Anti-HBsAg activity, HBsAg titer by chemiluminescent immunoassay; type: biochemical; conditions: 100 ppm; for HBsAg antigen titer: untreated 54 IU/ml
Procedure: For the antiviral testing, various concentrations of the chlorine dioxide solutions (agent A, agent B) were prepared and left in respective containers made of synthetic resin for 8 months. Specifically, each of the chlorine dioxide solutions obtained in each of Examples 1 and 2 was placed in a container having an opening with a diameter of 2 cm, and after closing a screw-cap, the container was left at room temperature for 8 months. Subsequently, an antiviral activity effect of the solution was examined. As controls, sodium hypochlorite (agent C), stabilized chlorine dioxide (sodium chlorite) (agent D), and povidone-iodine (agent E) were used. The agents C to E were not preserved for 8 months, and subjected to the test immediately after the purchase.
Each agent was added to human hepatitis B surface antigen (HBsAg), and after 1, 2, 3 or 4 days of sensitization, the agent was neutralized with a sodium thiosulfate solution, and HBsAg titer was measured using a chemiluminescent immunoassay “Architect-HBsAg (manufactured by Dainabot Co., Ltd.)”. An anti-HBsAg activity of the agent was evaluated.

human hepatitis B surface antigen (HBsAg), sequence (P12934 whole entry): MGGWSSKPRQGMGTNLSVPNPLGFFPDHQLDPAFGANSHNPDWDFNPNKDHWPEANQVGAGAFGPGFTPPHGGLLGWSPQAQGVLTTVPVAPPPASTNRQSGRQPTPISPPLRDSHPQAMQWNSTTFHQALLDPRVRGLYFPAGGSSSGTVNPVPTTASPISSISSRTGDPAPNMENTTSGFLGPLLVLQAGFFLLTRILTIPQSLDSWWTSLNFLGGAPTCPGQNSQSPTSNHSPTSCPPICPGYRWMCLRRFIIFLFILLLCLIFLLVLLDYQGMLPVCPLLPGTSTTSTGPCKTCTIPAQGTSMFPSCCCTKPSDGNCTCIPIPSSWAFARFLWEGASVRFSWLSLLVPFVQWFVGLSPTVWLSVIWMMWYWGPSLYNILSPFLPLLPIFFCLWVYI

With OCl [sodium hypochlorite, Sodium hypochlorite] the “CPV infectivity titer remaining” value ([1]; 10 ppm, after 180 seconds) was 100 TCID50, the “decrease in CPV infectivity titer” value ([1]; 100 ppm, after 120 seconds) was at least 99.99% and the anti-HBsAg activity ([2]; 1 to 4 days) was “absence of an anti-HBsAg activity”. For the same compound, the HBsAg antigen titer ([2]; sensitized time 1 day) was 50 IU/ml, the HBsAg antigen titer ([2]; sensitized time 2 days) was 51 IU/ml and the HBsAg antigen titer ([2]; sensitized time 3 days) was 51 IU/ml. The HBsAg antigen titer ([2]; sensitized time 4 days) was 49 IU/ml.

In the case of “sodium chlorite [stabilized chlorine dioxide solution]”, the “decrease in CPV infectivity titer” value [1] is reported as “no decrease in the infectivity titer was observed”.
